Assay results published in ChEMBL document CHEMBL5360625, “Design, Synthesis, and Antitumor Activity Evaluation of 2-Arylmethoxy-4-(2,2'-dihalogen-substituted biphenyl-3-ylmethoxy) Benzylamine Derivatives as Potent PD-1/PD-L1 Inhibitors” (J Med Chem, 2023).
Activity calls are given as the source filed them. No cut-off for these calls is given here.

What was measured:
[1] = biological target: Programmed cell death protein 1/Programmed cell death 1 ligand 1 (Homo sapiens, UniProt Q9NZQ7); assay: Inhibition of PD-1/PD-L1 interaction (unknown origin) incubated for 1 hr by HTRF assay; format: protein-complex assay
Chain of Programmed cell death protein 1/Programmed cell death 1 ligand 1 (Q15116 whole entry): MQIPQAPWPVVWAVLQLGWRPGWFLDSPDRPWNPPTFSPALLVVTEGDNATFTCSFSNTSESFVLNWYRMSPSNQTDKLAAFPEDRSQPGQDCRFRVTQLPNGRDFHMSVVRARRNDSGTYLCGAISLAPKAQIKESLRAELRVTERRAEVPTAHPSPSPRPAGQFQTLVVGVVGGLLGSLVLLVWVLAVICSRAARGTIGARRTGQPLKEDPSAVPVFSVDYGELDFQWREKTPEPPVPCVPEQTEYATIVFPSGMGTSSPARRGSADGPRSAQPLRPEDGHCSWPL
Chain of Programmed cell death protein 1/Programmed cell death 1 ligand 1 (Q9NZQ7 whole entry): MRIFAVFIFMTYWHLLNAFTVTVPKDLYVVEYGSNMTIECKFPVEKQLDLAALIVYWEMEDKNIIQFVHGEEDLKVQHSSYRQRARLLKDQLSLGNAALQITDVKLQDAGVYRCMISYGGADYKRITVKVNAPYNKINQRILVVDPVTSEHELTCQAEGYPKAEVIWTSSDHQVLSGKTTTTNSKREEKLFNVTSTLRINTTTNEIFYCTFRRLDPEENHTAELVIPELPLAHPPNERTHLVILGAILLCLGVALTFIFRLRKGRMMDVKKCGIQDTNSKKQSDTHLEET

[2] = biological target: Programmed cell death 1 ligand 1 (Homo sapiens, UniProt Q9NZQ7); assay: Binding affinity to human PD-L1 expressed in Escherichia coli strain BL21 assessed as dissociation constant by NMR spectroscopic analysis
Chain of Programmed cell death 1 ligand 1 (Q9NZQ7 whole entry): as above

[3] = biological target: Programmed cell death protein 1/Programmed cell death 1 ligand 1 (Homo sapiens) (UniProt Q15116+Q9NZQ7); assay: Inhibition of PD-1/PD-L1 interaction in human PBMC cells assessed as increase in IFN-gamma secretion at 4 uM incubated for 48 hrs in presence of PD-L1 protein by ELISA assay; format: cell-based
[4] = tested on: MC-38; assay: Antitumor activity against mouse MC38 cells expressing human PD-L1 protein assessed as reduction in cell viability measured after 48 hrs by CCK-8 assay; format: functional, cell-based; conditions: MC-38, 48 h
[5] = AUC (0 to t) in Sprague-Dawley rat at 8 mg/kg, iv measured upto 48 hrs by LC-MS/MS analysis; format: ADME, organism-based; set-up: dose 8 mg/kg, time < 48 hrs, route iv; conditions: in vivo
[6] = AUC (0 to t) in Sprague-Dawley rat at 10 mg/kg, ip measured upto 48 hrs by LC-MS/MS analysis; format: ADME, organism-based; set-up: time < 48 hrs, dose 10 mg/kg, route ip; conditions: in vivo
[7] = AUC (0 to infinity) in Sprague-Dawley rat at 8 mg/kg, iv measured upto 48 hrs by LC-MS/MS analysis; format: ADME, organism-based; set-up: time < 48 hrs, dose 8 mg/kg, route iv; conditions: in vivo
[8] = AUC (0 to infinity) in Sprague-Dawley rat at 40 mg/kg, IG measured upto 48 hrs by LC-MS/MS analysis; format: ADME, organism-based; set-up: time < 48 hrs, dose 40 mg/kg, route ig; conditions: Sprague-Dawley, in vivo, po
[9] = Cmax in Sprague-Dawley rat at 8 mg/kg, iv measured upto 48 hrs by LC-MS/MS analysis; format: ADME, organism-based; set-up: time < 48 hrs, dose 8 mg/kg, route iv; conditions: in vivo
[10] = Cmax in Sprague-Dawley rat at 40 mg/kg, IG measured upto 48 hrs by LC-MS/MS analysis; format: ADME, organism-based; set-up: dose 40 mg/kg, time < 48 hrs, route ig; conditions: in vivo, po
[11] = Tmax in Sprague-Dawley rat at 8 mg/kg, iv measured upto 48 hrs by LC-MS/MS analysis; format: ADME, organism-based; conditions: in vivo
[12] = Tmax in Sprague-Dawley rat at 40 mg/kg, IG measured upto 48 hrs by LC-MS/MS analysis; format: ADME, organism-based; conditions: in vivo, po
[13] = Tmax in Sprague-Dawley rat at 10 mg/kg, ip measured upto 48 hrs by LC-MS/MS analysis; format: ADME, organism-based; conditions: in vivo
[14] = Half life in Sprague-Dawley rat at 8 mg/kg, iv measured upto 48 hrs by LC-MS/MS analysis; format: ADME, organism-based; conditions: Sprague-Dawley, in vivo
[15] = Half life in Sprague-Dawley rat at 40 mg/kg, IG measured upto 48 hrs by LC-MS/MS analysis; format: ADME, organism-based; conditions: Sprague-Dawley, in vivo, po
[16] = Half life in Sprague-Dawley rat at 10 mg/kg, ip measured upto 48 hrs by LC-MS/MS analysis; format: ADME, organism-based; conditions: in vivo
[17] = Apparent volume of distribution in Sprague-Dawley rat at 8 mg/kg, iv measured upto 48 hrs by LC-MS/MS analysis; format: ADME, organism-based; conditions: Sprague-Dawley, in vivo, read-out: Vz
[18] = Apparent volume of distribution in Sprague-Dawley rat at 40 mg/kg, IG measured upto 48 hrs by LC-MS/MS analysis; format: ADME, organism-based; conditions: in vivo, po
[19] = Apparent volume of distribution in Sprague-Dawley rat at 10 mg/kg, ip measured upto 48 hrs by LC-MS/MS analysis; format: ADME, organism-based; conditions: in vivo
[20] = Clearance in Sprague-Dawley rat at 10 mg/kg, ip measured upto 48 hrs by LC-MS/MS analysis; format: ADME, organism-based; conditions: in vivo
[21] = Bioavailability in Sprague-Dawley rat at 40 mg/kg, IG measured upto 48 hrs by LC-MS/MS analysis; format: ADME, organism-based; conditions: in vivo, po
[22] = tested on: MC-38; assay: Antitumor activity against mouse MC38 cells implanted in PD-1/PD-L1 humanized C57/BL6 mouse assessed as tumor growth inhibition at 50 mg/kg, IG qd administered on day 5 measured after 2 weeks; format: functional; conditions: MC-38, po, 336 h, read-out: TGI
[23] = Toxicity in PD-1/PD-L1 humanized C57/BL6 mouse implanted with mouse MC38 cells assessed as change in body weight at 50 mg/kg, IG qd administered on day 5 measured after 2 weeks; format: organism-based, MC-38; conditions: in vivo, po, 336 h
[24] = tested on: MC-38; assay: Antitumor activity against mouse MC38 cells implanted in PD-1/PD-L1 humanized C57/BL6 mouse assessed as increase in CD3 positive CD8 positive T cells proportion in tumor at 50 mg/kg, IG qd administered on day 5 measured after 2 weeks by flow cytometry analysis (reference value: 51.8%); format: functional
[25] = tested on: MC-38; assay: Immunomodulatory activity in mouse MC38 cells implanted in PD-1/PD-L1 humanized C57/BL6 mouse assessed as increase in CXCL9 mRNA expression level in tumor at 50 mg/kg, IG qd administered on day 5 measured after 2 weeks by RT-PCR analysis; format: functional, organism-based
[26] = tested on: MC-38; assay: Antitumor activity against mouse MC38 cells implanted in PD-1/PD-L1 humanized C57/BL6 mouse assessed as increase in granzyme B level at 50 mg/kg, IG qd administered on day 5 measured after 2 weeks by microscopic analysis; format: functional, organism-based
[27] = tested on: MC-38; assay: Antitumor activity against mouse MC38 cells implanted in PD-1/PD-L1 humanized C57/BL6 mouse assessed as increase in perforin levels at 50 mg/kg, IG qd administered on day 5 measured after 2 weeks by microscopic analysis; format: functional, organism-based
[28] = Toxicity in PD-1/PD-L1 humanized C57/BL6 mouse implanted with mouse MC38 cells assessed as morphological change in liver at 50 mg/kg, IG qd administered on day 5 measured after 2 weeks by hematoxylin-eosin staining based inverted fluorescent microscopic analysis; format: organism-based, MC-38; conditions: in vivo, po, 336 h
[29] = Toxicity in PD-1/PD-L1 humanized C57/BL6 mouse implanted with mouse MC38 cells assessed as morphological change in spleen at 50 mg/kg, IG qd administered on day 5 measured after 2 weeks by hematoxylin-eosin staining based inverted fluorescent microscopic analysis; format: organism-based, MC-38; conditions: in vivo, po, 336 h
[30] = Toxicity in PD-1/PD-L1 humanized C57/BL6 mouse implanted with mouse MC38 cells assessed as morphological change in lung at 50 mg/kg, IG qd administered on day 5 measured after 2 weeks by hematoxylin-eosin staining based inverted fluorescent microscopic analysis; format: organism-based, MC-38; conditions: in vivo, po, 336 h
[31] = Toxicity in PD-1/PD-L1 humanized C57/BL6 mouse implanted with mouse MC38 cells assessed as morphological change in kidney at 50 mg/kg, IG qd administered on day 5 measured after 2 weeks by hematoxylin-eosin staining based inverted fluorescent microscopic analysis; format: organism-based, MC-38; conditions: in vivo, po, 336 h
[32] = Nephrotoxicity in PD-1/PD-L1 humanized C57/BL6 mouse implanted with mouse MC38 cells assessed as effect on creatinine level in serum at 50 mg/kg, IG qd administered on day 5 measured after 2 weeks; format: toxicity, organism-based, MC-38; conditions: in vivo, po, 336 h
[33] = Hepatotoxicity in PD-1/PD-L1 humanized C57/BL6 mouse implanted with mouse MC38 cells assessed as effect on AST level in serum at 50 mg/kg, IG qd administered on day 5 measured after 2 weeks; format: toxicity, organism-based, MC-38; conditions: in vivo, po, 336 h
[34] = Hepatotoxicity in PD-1/PD-L1 humanized C57/BL6 mouse implanted with mouse MC38 cells assessed as effect on total protein level in serum at 50 mg/kg, IG qd administered on day 5 measured after 2 weeks; format: toxicity, organism-based, MC-38; conditions: in vivo, po, 336 h

SMILES: N#Cc1cncc(COc2cc(OCc3cccc(-c4ccccc4F)c3Cl)ccc2CNCCO)c1
- IC50 [1]: 24 µM
- Kd [2]: < 1000 nM
- inhibition [3]: Active
- IC50 [4]: > 8 µM
- AUC(0-t) at 48 h [5]: 11500 ng·h/mL
- AUC(0-t) at 48 h [6]: 9730 ng·h/mL
- AUC(0-inf) [7]: 13400 ng·h/mL
- AUC(0-inf) [8]: 65500 ng·h/mL
- Cmax [9]: 6230 ng/mL
- Cmax [10]: 21500 ng/mL
- Tmax [11]: 4.8 min
- Tmax [12]: 1.75 h
- Tmax [13]: 52.8 min
- half-life [14]: 59.4 min
- half-life [15]: 103 min
- half-life [16]: 146 min
- Vd [17]: 1.09 L/kg
- Vz [18]: 1.8 L/kg
- Vz [19]: 2.94 L/kg
- CL/F [20]: 20.2 mL/min/kg
- bioavailability [21]: 114%
- inhibition in vivo at 50 mg/kg [22]: 55.2%
- Activity [23]: Non-Toxic
- Activity [24]: 67.4%
- Activity [25]: Active
- Activity [26]: Active
- Activity [27]: Active
- Activity [28]: Non-Toxic
- Activity [29]: Non-Toxic
- Activity [30]: Non-Toxic
- Activity [31]: Non-Toxic
- Activity [32]: Non-Toxic
- Activity [33]: Non-Toxic
- Activity [34]: Non-Toxic
